Data published in patent US12077503B2, “Substituted cyclic amides and their use as herbicides” (FMC CORPORATION, priority 2015, dated 2024).

Columns and labels:
Experiment in all cases: Test C preemergence
Type in all cases: in vivo
[1] = test system: blackgrass (Alopecurus myosuroides); settings: for Plant response rating (scale of 0 to 100), Blackgrass: 0 is no effect, 100 is complete control
How it was run: (§1)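 Visual rating, 0–100 scale (0 = no effect, 100 = complete control) versus controls, 13–15 d after treatment. Compounds in non-phytotoxic solvent plus surfactant; applied preemergence to seeds in loam/sand soil or postemergence to 1- to 4-leaf plants (2–18 cm) in peat/vermiculite medium; greenhouse-held.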

[2] = test system: foxtail, giant (giant foxtail, Setaria faberii); settings: for Plant response rating (scale of 0 to 100), Foxtail, Giant: 0 is no effect, 100 is complete control
How it was run: as §1

[3] = test system: morningglory (Ipomoea coccinea); settings: for Plant response rating (scale of 0 to 100), Morningglory: 0 is no effect, 100 is complete control
How it was run: as §1

[4] = test system: barnyardgrass (Echinochloa crus-galli); settings: for Plant response rating (scale of 0 to 100), Barnyardgrass: 0 is no effect, 100 is complete control
How it was run: as §1

[5] = test system: waterhemp (common waterhemp, Amaranthus rudis); settings: for Plant response rating (scale of 0 to 100), Waterhemp: 0 is no effect, 100 is complete control
How it was run: as §1

[6] = test system: oilseed rape (Brassica napus); settings: for Plant response rating (scale of 0 to 100), Oilseed Rape: 0 is no effect, 100 is complete control
How it was run: as §1

[7] = test system: pigweed (Amaranthus retroflexus); settings: for Plant response rating (scale of 0 to 100), Pigweed: 0 is no effect, 100 is complete control
How it was run: as §1

[8] = test system: ragweed (common ragweed, Ambrosia elatior); settings: for Plant response rating (scale of 0 to 100), Ragweed: 0 is no effect, 100 is complete control
How it was run: as §1

soybean (Glycine max) = settings: for Plant response rating (scale of 0 to 100), Soybean: 0 is no effect, 100 is complete control
How it was run: as §1

[9] = test system: ryegrass, Italian (Italian ryegrass, Lolium multiflorum); settings: for Plant response rating (scale of 0 to 100), Ryegrass, Italian: 0 is no effect, 100 is complete control
How it was run: as §1

[10] = test system: lambsquarters (Chenopodium album); settings: for Plant response rating (scale of 0 to 100), Lambsquarters: 0 is no effect, 100 is complete control
How it was run: as §1

[11] = test system: crabgrass, large (large crabgrass, Digitaria sanguinalis); settings: for Plant response rating (scale of 0 to 100), Crabgrass, Large: 0 is no effect, 100 is complete control
How it was run: as §1

corn (Zea mays) = settings: for Plant response rating (scale of 0 to 100), Corn: 0 is no effect, 100 is complete control
How it was run: as §1

[12] = test system: velvetleaf (Abutilon theophrasti); settings: for Plant response rating (scale of 0 to 100), Velvetleaf: 0 is no effect, 100 is complete control
How it was run: as §1

[13] = test system: nutsedge, yellow (yellow nutsedge, Cyperus esculentus); settings: for Plant response rating (scale of 0 to 100), Nutsedge, Yellow: 0 is no effect, 100 is complete control
How it was run: as §1

[14] = test system: wheat (winter wheat, Triticum aestivum); settings: for Plant response rating (scale of 0 to 100), Wheat: 0 is no effect, 100 is complete control
How it was run: as §1

[15] = test system: johnsongrass (Sorghum halepense); settings: for Plant response rating (scale of 0 to 100), Johnsongrass: 0 is no effect, 100 is complete control
How it was run: as §1

[16] = test system: Galium (catchweed bedstraw, Galium aparine); settings: for Plant response rating (scale of 0 to 100), Galium: 0 is no effect, 100 is complete control
How it was run: as §1

[17] = 62 g ai/ha, scale 0 to 100, 0 no effect, 100 complete control

CN1C[C@H](c2ccc(C(F)(F)F)cc2)[C@@H](C(=O)Nc2cccc(F)c2F)C1=O [Compound 623, (3S,4S)—N-(2,3-difluorophenyl)-1-methyl-2-oxo-4-[4-(trifluoromethyl)phenyl]-3-pyrrolidinecarboxamide]
35: Plant response rating, Wheat [14, 17]
40: Plant response rating (scale of 0 to 100), Blackgrass ([1]; 16 g ai/ha) | Plant response rating (scale of 0 to 100), Wheat ([14]; 31 g ai/ha)
95: Plant response rating, Barnyardgrass [4, 17] | Plant response rating (scale of 0 to 100), Crabgrass, Large ([11]; 31 g ai/ha) | Plant response rating, Crabgrass, Large [11, 17]
10: Plant response rating (scale of 0 to 100), Lambsquarters ([10]; 8 g ai/ha) | Plant response rating (scale of 0 to 100), Corn (corn (Zea mays); 8 g ai/ha)
90: Plant response rating, Blackgrass [1, 17] | Plant response rating (scale of 0 to 100), Foxtail, Giant ([2]; 16 g ai/ha) | Plant response rating (scale of 0 to 100), Foxtail, Giant ([2]; 31 g ai/ha) | Plant response rating, Foxtail, Giant [2, 17] | Plant response rating (scale of 0 to 100), Barnyardgrass ([4]; 8 g ai/ha) | Plant response rating (scale of 0 to 100), Barnyardgrass ([4]; 16 g ai/ha) | Plant response rating (scale of 0 to 100), Barnyardgrass ([4]; 31 g ai/ha) | Plant response rating, Waterhemp [5, 17] | Plant response rating (scale of 0 to 100), Crabgrass, Large ([11]; 8 g ai/ha) | Plant response rating (scale of 0 to 100), Crabgrass, Large ([11]; 16 g ai/ha) | Plant response rating (scale of 0 to 100), Galium ([16]; 8 g ai/ha) | Plant response rating, Galium [16, 17]
70: Plant response rating, Johnsongrass [15, 17]
50: Plant response rating, Lambsquarters [10, 17] | Plant response rating (scale of 0 to 100), Johnsongrass ([15]; 8 g ai/ha) | Plant response rating (scale of 0 to 100), Johnsongrass ([15]; 31 g ai/ha)
45: Plant response rating (scale of 0 to 100), Waterhemp ([5]; 8 g ai/ha) | Plant response rating (scale of 0 to 100), Ragweed ([8]; 31 g ai/ha) | Plant response rating (scale of 0 to 100), Ryegrass, Italian ([9]; 31 g ai/ha)
75: Plant response rating (scale of 0 to 100), Waterhemp ([5]; 16 g ai/ha) | Plant response rating (scale of 0 to 100), Pigweed ([7]; 8 g ai/ha) | Plant response rating, Ragweed [8, 17]
25: Plant response rating (scale of 0 to 100), Morningglory ([3]; 31 g ai/ha)
5: Plant response rating (scale of 0 to 100), Velvetleaf ([12]; 31 g ai/ha)
60: Plant response rating (scale of 0 to 100), Blackgrass ([1]; 31 g ai/ha) | Plant response rating (scale of 0 to 100), Lambsquarters ([10]; 31 g ai/ha) | Plant response rating (scale of 0 to 100), Corn (corn (Zea mays); 31 g ai/ha) | Plant response rating, Velvetleaf [12, 17]
0: Plant response rating (scale of 0 to 100), Blackgrass ([1]; 8 g ai/ha) | Plant response rating (scale of 0 to 100), Morningglory ([3]; 8 g ai/ha) | Plant response rating (scale of 0 to 100), Morningglory ([3]; 16 g ai/ha) | Plant response rating (scale of 0 to 100), Oilseed Rape ([6]; 16 g ai/ha) | Plant response rating (scale of 0 to 100), Ragweed ([8]; 8 g ai/ha) | Plant response rating (scale of 0 to 100), Soybean (soybean (Glycine max); 8 g ai/ha) | Plant response rating (scale of 0 to 100), Soybean (soybean (Glycine max); 16 g ai/ha) | Plant response rating (scale of 0 to 100), Soybean (soybean (Glycine max); 31 g ai/ha) | Plant response rating, Soybean (soybean (Glycine max); [17]) | Plant response rating (scale of 0 to 100), Ryegrass, Italian ([9]; 8 g ai/ha) | Plant response rating (scale of 0 to 100), Velvetleaf ([12]; 8 g ai/ha) | Plant response rating (scale of 0 to 100), Velvetleaf ([12]; 16 g ai/ha) | Plant response rating (scale of 0 to 100), Nutsedge, Yellow ([13]; 8 g ai/ha) | Plant response rating (scale of 0 to 100), Nutsedge, Yellow ([13]; 16 g ai/ha) | Plant response rating (scale of 0 to 100), Nutsedge, Yellow ([13]; 31 g ai/ha) | Plant response rating, Nutsedge, Yellow [13, 17] | Plant response rating (scale of 0 to 100), Wheat ([14]; 16 g ai/ha)
20: Plant response rating (scale of 0 to 100), Ragweed ([8]; 16 g ai/ha) | Plant response rating (scale of 0 to 100), Ryegrass, Italian ([9]; 16 g ai/ha) | Plant response rating (scale of 0 to 100), Wheat ([14]; 8 g ai/ha)
80: Plant response rating (scale of 0 to 100), Oilseed Rape ([6]; 8 g ai/ha)
85: Plant response rating (scale of 0 to 100), Foxtail, Giant ([2]; 8 g ai/ha) | Plant response rating (scale of 0 to 100), Waterhemp ([5]; 31 g ai/ha) | Plant response rating, Oilseed Rape [6, 17] | Plant response rating (scale of 0 to 100), Pigweed ([7]; 16 g ai/ha) | Plant response rating (scale of 0 to 100), Pigweed ([7]; 31 g ai/ha) | Plant response rating, Pigweed [7, 17] | Plant response rating (scale of 0 to 100), Galium ([16]; 16 g ai/ha) | Plant response rating (scale of 0 to 100), Galium ([16]; 31 g ai/ha)
65: Plant response rating, Corn (corn (Zea mays); [17])
15: Plant response rating, Morningglory [3, 17] | Plant response rating (scale of 0 to 100), Johnsongrass ([15]; 16 g ai/ha)
55: Plant response rating, Ryegrass, Italian [9, 17]
30: Plant response rating (scale of 0 to 100), Oilseed Rape ([6]; 31 g ai/ha) | Plant response rating (scale of 0 to 100), Lambsquarters ([10]; 16 g ai/ha) | Plant response rating (scale of 0 to 100), Corn (corn (Zea mays); 16 g ai/ha)
